Reference: publication PMC6914789 (Scientific Reports, 2019)

What was measured:
[1] = target: T1, Sirt6 (Homo sapiens, UniProt Q8N6T7); assay: crystal structure at […] Å; MS deacetylation assay (activation at […]); assay type: binding
T1 construct: Sirt6(13–308) for crystals; Sirt6(1-355) for activity

[2] = target: T2, Sirt3 (Homo sapiens, UniProt Q9NTG7); assay: MS deacetylation assay with acetyl-ACS2 peptide; assay type: biochemical
T2 construct: residues 118–399
T2 sequence (Q9NTG7 118-399): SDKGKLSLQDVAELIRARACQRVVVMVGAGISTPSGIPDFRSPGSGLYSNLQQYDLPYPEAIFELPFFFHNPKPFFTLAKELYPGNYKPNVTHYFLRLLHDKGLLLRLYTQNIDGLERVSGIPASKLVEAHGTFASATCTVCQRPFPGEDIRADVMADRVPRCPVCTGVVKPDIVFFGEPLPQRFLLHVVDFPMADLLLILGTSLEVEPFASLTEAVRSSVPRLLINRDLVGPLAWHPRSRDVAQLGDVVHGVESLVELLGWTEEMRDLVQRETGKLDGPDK

[3] = target: T3, Sirt1 (Homo sapiens, UniProt Q96EB6); assay: MS deacetylation assay with acetyl-p53 peptide; assay type: biochemical
T3 construct: Full length human Sirt1
T3 sequence (Q96EB6 2-747): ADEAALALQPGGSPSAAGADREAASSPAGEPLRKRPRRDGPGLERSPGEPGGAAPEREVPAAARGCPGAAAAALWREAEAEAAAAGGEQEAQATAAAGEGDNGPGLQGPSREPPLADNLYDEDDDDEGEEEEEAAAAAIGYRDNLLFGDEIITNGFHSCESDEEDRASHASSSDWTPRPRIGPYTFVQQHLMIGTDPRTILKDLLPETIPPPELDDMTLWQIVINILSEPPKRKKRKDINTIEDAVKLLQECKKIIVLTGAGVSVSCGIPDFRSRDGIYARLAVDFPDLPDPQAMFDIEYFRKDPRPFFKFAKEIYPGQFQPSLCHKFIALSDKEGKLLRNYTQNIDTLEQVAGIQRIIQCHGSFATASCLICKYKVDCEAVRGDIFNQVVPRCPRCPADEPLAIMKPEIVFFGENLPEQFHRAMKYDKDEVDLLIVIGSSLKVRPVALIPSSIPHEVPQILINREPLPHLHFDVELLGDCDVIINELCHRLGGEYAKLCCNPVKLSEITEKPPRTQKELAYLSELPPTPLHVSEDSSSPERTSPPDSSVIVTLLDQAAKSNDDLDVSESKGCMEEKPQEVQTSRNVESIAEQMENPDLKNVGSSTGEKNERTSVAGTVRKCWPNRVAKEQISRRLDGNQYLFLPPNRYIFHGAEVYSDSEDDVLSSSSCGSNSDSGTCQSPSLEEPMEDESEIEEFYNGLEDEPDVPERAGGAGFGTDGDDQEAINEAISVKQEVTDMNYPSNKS

[4] = target: T4, Sirt5 (Homo sapiens, UniProt Q9NXA8); assay: MS desuccinylation assay with succinyl-CPS1 peptide; assay type: biochemical
T4 construct: residues 34–302
T4 sequence (Q9NXA8 34-302): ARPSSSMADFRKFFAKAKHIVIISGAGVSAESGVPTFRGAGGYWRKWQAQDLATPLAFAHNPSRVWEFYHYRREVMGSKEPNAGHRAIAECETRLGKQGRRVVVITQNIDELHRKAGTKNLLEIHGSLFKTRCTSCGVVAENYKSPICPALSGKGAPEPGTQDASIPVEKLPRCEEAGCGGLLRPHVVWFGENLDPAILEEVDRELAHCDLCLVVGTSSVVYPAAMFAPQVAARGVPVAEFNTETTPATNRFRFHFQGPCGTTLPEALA

[5] = target: T1, Sirt6; assay: crystal structure ([…] Å in Table […]); MS deacetylation assay (activation); assay type: binding

T1 sequence (Q8N6T7 whole entry): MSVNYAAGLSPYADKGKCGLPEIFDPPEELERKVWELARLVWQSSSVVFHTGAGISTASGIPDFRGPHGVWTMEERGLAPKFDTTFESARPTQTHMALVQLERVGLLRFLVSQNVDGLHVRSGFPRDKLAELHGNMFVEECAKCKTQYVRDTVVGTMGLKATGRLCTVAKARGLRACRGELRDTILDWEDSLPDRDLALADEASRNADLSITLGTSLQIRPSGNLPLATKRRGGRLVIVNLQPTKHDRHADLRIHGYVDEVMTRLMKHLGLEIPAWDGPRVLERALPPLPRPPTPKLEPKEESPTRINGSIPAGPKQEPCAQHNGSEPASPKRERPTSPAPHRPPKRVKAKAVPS

## Oc1cc(O)c2cc(O)c(-c3ccc(O)c(O)c3)[o+]c2c1 [compound 6, cyanidin]
[1]
  crystal structure at 2.10 Å; MS deacetylation assay (activation at 20-80 μM): we solved a crystal structure of a Sirt6/ADP-ribose/cyanidin complex

## O=c1c(O)c(-c2ccc(O)c(O)c2)oc2cc(O)cc(O)c12 [compound 1, quercetin]
[2]
  MS deacetylation assay with acetyl-ACS2 peptide: Quercetin caused a concentration-dependent inhibition of all Sirtuin isoforms except for Sirt6
[3]
  MS deacetylation assay with acetyl-p53 peptide: Quercetin caused a concentration-dependent inhibition of all Sirtuin isoforms except for Sirt6
[4]
  MS desuccinylation assay with succinyl-CPS1 peptide: Quercetin caused a concentration-dependent inhibition of all Sirtuin isoforms except for Sirt6

## O=c1c(O[C@@H]2O[C@H](CO)[C@@H](O)[C@H](O)[C@H]2O)c(-c2ccc(O)c(O)c2)oc2cc(O)cc(O)c12 [compound 4, isoquercetin]
[5]
  crystal structure (1.90 Å in Table 1); MS deacetylation assay (activation): we determined a crystal structure of a Sirt6/ADP-ribose/isoquercetin complex
